Measurements reported in ChEMBL document CHEMBL1201862, “PubChem BioAssay data set” (2004).
Several values for one entry are separate records, joined by “and”; a condition that tells them apart may be missing. Equal entries are not always repeated. Activity calls are given as the source filed them.

Experiments:
[1] = biological target: Melanin-concentrating hormone receptor 1 (Homo sapiens, UniProt Q99705); test: Late-stage fluorescence-based counterscreen for antagonists of the G-protein coupled receptor 7 (GPR7): cell-based dose response assay to identify antagonists of the melanin-concentrating hormone receptor 1 (MCHR1) Set 6.; assay type: functional
Sequence of Melanin-concentrating hormone receptor 1 (Q99705 whole entry): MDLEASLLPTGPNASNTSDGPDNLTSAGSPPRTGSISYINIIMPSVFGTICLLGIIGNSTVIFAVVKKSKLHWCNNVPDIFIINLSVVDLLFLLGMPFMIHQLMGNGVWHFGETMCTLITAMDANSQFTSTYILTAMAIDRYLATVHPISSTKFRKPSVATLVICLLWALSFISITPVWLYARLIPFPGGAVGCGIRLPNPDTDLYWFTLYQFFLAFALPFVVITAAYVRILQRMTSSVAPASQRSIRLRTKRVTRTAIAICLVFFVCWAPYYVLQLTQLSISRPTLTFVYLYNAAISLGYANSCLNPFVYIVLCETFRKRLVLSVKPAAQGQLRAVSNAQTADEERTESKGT

[2] = biological target: T1, Neuropeptides B/W receptor type 1 (Homo sapiens, UniProt P48145); test: GPR7 antagonist potency, late-stage follow-up, cell-based, fluorescence, dose response, set 6 (AID 588583); assay type: functional
T1 sequence (P48145 whole entry): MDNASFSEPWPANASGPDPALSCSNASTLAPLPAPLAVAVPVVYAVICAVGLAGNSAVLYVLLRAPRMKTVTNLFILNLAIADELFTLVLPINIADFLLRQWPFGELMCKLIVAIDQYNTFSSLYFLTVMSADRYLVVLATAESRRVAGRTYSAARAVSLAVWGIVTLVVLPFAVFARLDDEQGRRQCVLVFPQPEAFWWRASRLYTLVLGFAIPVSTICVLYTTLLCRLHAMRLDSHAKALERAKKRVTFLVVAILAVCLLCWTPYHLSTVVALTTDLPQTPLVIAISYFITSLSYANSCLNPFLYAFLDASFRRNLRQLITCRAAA

Melanocortin receptor 4 = Melanocortin receptor 4 (Homo sapiens, UniProt P32245); test: MC4R antagonist potency on cAMP, dose response, cell-based, TR-FRET, biased antagonists (AID 602298); assay type: functional;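 also: antagonist potency against agonist-stimulated cAMP production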
Sequence of Melanocortin receptor 4 (P32245 whole entry): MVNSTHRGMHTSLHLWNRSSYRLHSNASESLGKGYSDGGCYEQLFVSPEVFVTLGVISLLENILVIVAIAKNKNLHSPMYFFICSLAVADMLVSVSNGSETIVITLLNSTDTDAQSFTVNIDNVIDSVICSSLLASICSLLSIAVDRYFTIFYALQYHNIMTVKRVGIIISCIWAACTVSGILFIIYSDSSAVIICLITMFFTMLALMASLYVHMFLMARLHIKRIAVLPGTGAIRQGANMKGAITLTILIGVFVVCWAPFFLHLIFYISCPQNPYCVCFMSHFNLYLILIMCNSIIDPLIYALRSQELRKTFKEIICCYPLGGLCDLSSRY

[3] = nonselective inhibitors of cellular cAMP signaling, dose response, counter-screen for MC4R biased antagonist project, cell-based, TR-FRET cAMP detection (AID 602305); assay type: functional;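 also: U2OS cells stimulated with forskolin near its EC80 as the cAMP inducer; potency is for inhibition of forskolin-stimulated cAMP signaling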
H9c2 = test: cells; assay type: functional, cell-based; details: Rattus norvegicus, H9c2, Myocardium;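 also: confirmatory concentration-response retest of ultra-high-throughput screening hits for modulation of myocardial damage; cell death induced by hydrogen peroxide oxidative stress; compound pretreatment for 60 min then peroxide exposure for 2 h; potency is for protecting the cells against peroxide damage rather than for killing them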
[4] = biological target: T2, Sentrin-specific protease 8 (Homo sapiens, UniProt Q96LD8); test: SENP8 protease inhibitors, SAR follow-up, biochemical, luminescence (AID 504501); assay type: functional
T2 sequence (Q96LD8 whole entry): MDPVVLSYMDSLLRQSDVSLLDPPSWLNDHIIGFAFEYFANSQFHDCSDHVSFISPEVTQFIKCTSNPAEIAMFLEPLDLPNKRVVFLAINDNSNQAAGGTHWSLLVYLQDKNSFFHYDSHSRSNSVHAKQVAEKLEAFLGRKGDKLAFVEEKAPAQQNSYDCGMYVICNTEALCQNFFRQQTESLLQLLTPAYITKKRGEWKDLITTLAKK

[5] = biological target: T3, Sentrin-specific protease 6 (Homo sapiens, UniProt Q9GZR1); test: SENP6 protease inhibitors, SAR follow-up, biochemical, luminescence, set 2 (AID 588598); assay type: functional
T3 sequence (Q9GZR1 whole entry): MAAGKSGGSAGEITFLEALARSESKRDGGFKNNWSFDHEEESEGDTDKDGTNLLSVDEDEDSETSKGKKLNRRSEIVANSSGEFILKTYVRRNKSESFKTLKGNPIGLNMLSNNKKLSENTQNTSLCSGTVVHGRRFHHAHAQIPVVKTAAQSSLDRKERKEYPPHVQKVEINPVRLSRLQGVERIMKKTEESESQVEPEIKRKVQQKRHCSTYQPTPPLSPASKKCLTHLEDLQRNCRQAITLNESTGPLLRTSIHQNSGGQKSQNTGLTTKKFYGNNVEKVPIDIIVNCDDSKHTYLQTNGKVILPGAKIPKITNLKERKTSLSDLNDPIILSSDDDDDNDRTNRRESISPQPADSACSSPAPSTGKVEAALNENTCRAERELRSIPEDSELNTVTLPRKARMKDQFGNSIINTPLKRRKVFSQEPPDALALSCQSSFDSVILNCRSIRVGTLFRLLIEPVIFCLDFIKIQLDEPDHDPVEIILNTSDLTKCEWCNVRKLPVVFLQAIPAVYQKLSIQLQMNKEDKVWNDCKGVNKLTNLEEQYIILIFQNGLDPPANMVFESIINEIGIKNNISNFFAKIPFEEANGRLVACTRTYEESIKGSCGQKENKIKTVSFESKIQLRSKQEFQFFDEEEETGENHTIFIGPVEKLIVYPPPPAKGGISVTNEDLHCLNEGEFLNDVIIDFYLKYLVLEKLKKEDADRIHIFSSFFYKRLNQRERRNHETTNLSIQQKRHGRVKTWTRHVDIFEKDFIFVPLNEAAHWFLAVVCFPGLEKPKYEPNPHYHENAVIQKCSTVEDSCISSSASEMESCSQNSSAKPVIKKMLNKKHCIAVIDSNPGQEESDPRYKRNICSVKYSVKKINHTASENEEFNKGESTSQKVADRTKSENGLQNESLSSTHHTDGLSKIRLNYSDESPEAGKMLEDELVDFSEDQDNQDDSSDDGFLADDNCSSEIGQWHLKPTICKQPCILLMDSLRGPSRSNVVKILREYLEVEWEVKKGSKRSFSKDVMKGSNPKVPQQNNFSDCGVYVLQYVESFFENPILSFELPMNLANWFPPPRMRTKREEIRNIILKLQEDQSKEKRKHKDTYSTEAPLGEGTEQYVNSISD

[6] = biological target: T2, Sentrin-specific protease 8; test: SENP8 protease inhibitors, SAR follow-up, biochemical, luminescence, set 2 (AID 588601); assay type: functional
[7] = biological target: T4, Sentrin-specific protease 7 (Homo sapiens, UniProt Q9BQF6); test: SENP7 protease inhibitors, SAR follow-up, biochemical, luminescence (AID 504497); assay type: functional
T4 sequence (Q9BQF6 whole entry): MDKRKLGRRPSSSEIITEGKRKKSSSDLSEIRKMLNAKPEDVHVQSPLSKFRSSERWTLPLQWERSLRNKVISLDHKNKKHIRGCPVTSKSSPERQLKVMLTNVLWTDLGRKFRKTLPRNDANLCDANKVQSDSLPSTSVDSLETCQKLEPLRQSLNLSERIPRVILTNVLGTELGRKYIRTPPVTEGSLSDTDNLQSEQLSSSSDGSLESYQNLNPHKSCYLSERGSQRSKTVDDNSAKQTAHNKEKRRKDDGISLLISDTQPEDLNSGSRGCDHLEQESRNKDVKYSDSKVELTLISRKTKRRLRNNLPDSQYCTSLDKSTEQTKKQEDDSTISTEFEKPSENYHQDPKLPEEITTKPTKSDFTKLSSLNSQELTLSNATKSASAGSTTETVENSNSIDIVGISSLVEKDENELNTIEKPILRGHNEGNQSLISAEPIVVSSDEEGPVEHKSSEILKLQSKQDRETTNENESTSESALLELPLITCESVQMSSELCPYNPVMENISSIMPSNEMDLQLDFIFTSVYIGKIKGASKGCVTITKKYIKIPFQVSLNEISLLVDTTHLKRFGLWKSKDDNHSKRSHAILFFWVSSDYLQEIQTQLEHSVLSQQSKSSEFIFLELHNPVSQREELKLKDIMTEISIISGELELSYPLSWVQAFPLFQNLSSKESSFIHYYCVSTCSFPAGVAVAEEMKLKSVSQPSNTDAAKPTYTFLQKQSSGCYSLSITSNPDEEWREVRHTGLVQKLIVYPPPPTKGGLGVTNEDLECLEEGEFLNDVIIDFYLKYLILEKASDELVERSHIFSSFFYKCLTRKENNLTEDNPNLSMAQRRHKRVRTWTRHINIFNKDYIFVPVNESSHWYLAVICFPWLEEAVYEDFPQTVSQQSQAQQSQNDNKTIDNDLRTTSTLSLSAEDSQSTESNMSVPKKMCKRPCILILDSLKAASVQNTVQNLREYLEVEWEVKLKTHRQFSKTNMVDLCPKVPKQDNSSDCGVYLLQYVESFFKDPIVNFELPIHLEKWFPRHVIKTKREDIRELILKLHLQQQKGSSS

Caspase-3 = biological target: T5, Caspase-3 (Homo sapiens, UniProt P42574); test: SAR Analysis of small molecule inhibitors of Sentrin-specific proteases (SENPs) using a Caspase-3 Selectivity assay. [Related pubchem assays (depositor defined):AID2540, AID2599, AID434973, AID489001]; assay type: functional
T5 sequence (P42574 whole entry): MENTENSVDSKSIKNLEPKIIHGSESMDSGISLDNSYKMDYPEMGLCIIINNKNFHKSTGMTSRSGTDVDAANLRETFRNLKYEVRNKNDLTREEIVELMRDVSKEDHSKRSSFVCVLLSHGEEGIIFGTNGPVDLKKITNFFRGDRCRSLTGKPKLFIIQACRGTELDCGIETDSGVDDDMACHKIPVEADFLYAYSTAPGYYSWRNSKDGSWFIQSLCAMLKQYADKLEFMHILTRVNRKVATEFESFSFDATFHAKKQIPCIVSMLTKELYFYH

[8] = biological target: T4, Sentrin-specific protease 7; test: SENP7 protease inhibitors, SAR follow-up, biochemical, luminescence, set 2 (AID 588600); assay type: functional
[9] = biological target: T3, Sentrin-specific protease 6; test: SAR Analysis of small molecule inhibitors of Sentrin-specific protease 6 (SENP6) using a Luminescent assay. [Related pubchem assays (depositor defined):AID2582, AID2599]; assay type: functional
[10] = HEp-2 cell cytotoxicity, dose response, cytotoxicity control for RSV inhibitor project, HTS (AID 2410); assay type: functional; details: human respiratory syncytial virus
Cytochrome P450 2D6 = Cytochrome P450 2D6 (Homo sapiens, UniProt P10635);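 also: CYP2D6 member of a cytochrome P450 panel assay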
Sequence of Cytochrome P450 2D6 (P10635 whole entry): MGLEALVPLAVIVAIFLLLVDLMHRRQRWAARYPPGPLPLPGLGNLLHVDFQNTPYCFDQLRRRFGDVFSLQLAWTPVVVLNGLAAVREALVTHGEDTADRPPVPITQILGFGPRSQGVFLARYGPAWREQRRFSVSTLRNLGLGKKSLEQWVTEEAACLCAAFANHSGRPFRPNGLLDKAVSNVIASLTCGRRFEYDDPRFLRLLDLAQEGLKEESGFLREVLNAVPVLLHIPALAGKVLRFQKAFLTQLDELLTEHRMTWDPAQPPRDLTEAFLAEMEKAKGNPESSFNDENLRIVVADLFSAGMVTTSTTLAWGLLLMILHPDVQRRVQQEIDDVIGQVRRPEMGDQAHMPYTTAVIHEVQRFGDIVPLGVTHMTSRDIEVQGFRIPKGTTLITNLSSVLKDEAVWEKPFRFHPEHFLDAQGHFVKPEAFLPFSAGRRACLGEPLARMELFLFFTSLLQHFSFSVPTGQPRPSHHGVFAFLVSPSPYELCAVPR

[11] = biological target: T6, High affinity choline transporter 1 (Homo sapiens, UniProt Q9GZV3); test: CHT inhibitors, dose response, cell-based, 10-point CRC, membrane potential dye (AID 588401); assay type: functional;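 also: membrane potential dye fluorescence of choline-evoked depolarization via CHT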
T6 sequence (Q9GZV3 whole entry): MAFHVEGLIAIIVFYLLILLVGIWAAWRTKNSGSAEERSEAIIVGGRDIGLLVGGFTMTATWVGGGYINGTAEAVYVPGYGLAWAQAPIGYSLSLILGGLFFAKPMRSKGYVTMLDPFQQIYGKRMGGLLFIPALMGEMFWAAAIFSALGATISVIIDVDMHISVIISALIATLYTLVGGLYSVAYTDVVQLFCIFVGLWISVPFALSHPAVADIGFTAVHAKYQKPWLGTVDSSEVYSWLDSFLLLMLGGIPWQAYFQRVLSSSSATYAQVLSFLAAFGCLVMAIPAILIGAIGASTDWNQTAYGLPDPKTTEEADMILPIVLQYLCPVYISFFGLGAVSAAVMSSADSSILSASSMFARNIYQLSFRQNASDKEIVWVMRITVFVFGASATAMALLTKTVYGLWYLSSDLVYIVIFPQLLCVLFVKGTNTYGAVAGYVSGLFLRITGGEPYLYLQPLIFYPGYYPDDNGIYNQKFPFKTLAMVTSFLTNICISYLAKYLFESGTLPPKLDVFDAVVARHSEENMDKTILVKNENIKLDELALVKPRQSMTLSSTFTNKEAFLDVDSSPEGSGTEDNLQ

[12] = biological target: T6, High affinity choline transporter 1; test: CHT inhibitors, dose response, cell-based, 5-point CRC, membrane potential dye (AID 504840); assay type: functional
[13] = biological target: T7, Rac GTPase-activating protein 1 (Homo sapiens, UniProt Q9H0H5); test: MgcRacGAP GTPase-activating activity inhibitors, confirmation, biochemical, ADP Hunter fluorescence, primary and confirmatory (AID 624330); assay type: functional
T7 sequence (Q9H0H5 whole entry): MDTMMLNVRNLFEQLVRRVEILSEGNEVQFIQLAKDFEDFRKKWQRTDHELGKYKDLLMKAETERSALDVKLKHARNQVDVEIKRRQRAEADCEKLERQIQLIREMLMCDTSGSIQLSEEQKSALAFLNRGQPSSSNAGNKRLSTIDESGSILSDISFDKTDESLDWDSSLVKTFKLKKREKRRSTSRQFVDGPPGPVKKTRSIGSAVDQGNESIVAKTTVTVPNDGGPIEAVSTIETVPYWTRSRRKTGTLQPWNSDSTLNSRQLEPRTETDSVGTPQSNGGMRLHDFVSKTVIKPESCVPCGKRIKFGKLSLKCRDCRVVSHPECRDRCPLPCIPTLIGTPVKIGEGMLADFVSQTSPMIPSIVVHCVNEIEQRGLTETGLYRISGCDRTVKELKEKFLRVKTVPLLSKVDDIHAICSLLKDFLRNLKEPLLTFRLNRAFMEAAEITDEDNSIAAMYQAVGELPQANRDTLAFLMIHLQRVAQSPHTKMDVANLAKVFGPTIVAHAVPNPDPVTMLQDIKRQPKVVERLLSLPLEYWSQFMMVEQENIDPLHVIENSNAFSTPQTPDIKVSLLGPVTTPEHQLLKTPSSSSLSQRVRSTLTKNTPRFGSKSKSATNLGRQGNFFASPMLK

N#Cc1cccc(C(C#N)c2c(Cl)cnn(Cc3cccc4ccccc34)c2=O)c1 (configuration not stated)
IC50 [1]: 553 nM (active) | IC50 [2]: 553 nM (active)

CCN(C[C@H]1N[C@@](CC)(C(=O)OC)[C@H]2C(=O)N(Cc3ccccc3)C(=O)[C@@H]12)C(=O)c1ccc(C(C)(C)C)cc1
IC50 (Melanocortin receptor 4): > 64.6 µM (inactive) | IC50 [3]: > 64.6 µM (inactive) | IC50 (H9c2): > 79 µM (inactive)

CCCCc1ccc2nc(NC(=O)c3sccc3Cl)sc2c1
IC50 [4]: 0.99 µM (active) | IC50 [5]: 1.15 µM (active) | IC50 [6]: 1.06 µM (active) | IC50 [7]: 0.96 µM (active) | IC50 (Caspase-3): 1.1 µM (active) | IC50 [8]: 1.16 µM (active) | IC50 [9]: 0.97 µM (active)

CCn1ccc2ccc(Oc3c(Cl)cnn(Cc4cccc5ccccc45)c3=O)cc21
IC50 [1]: > 20000 nM (inactive) | IC50 [2]: > 20000 nM (inactive)

COc1ccc(OC)c(C2C3=C(O)CCCC3=NC(C)=C2C(=O)Nc2nc3ccccc3s2)c1 (configuration not stated)
IC50 (Melanocortin receptor 4): 12.6 µM (inactive) | IC50 [3]: > 64.6 µM (inactive) | IC50 (cells): 9.83 µM (active) | CC50 [10]: 23.1 µM (active) | AC50 (Cytochrome P450 2D6): 22.4 µM (inconclusive)

CC(C)c1ccc(C(C#N)c2c(Cl)cnn(Cc3cccc4ccccc34)c2=O)cc1 (configuration not stated)
IC50 [1]: 253 nM (active) and 1.62 µM (active) | IC50 [2]: 253 nM (active) and 1.62 µM (active)

CCc1ccc(C(C)N=C(S)NC2CCCCC2)cc1 (configuration not stated)
IC50 [11]: 11.2 µM (active) | IC50 [12]: 7.86 µM (active)

CCOC(=O)c1sc(S)nc1C
IC50 (Melanocortin receptor 4): 18.2 µM (inactive) | IC50 [13]: 50 µM (active) | IC50 [3]: 44.7 µM (inactive)

O=C(Nc1ccc(-c2noc(/C=C/c3ccccc3)n2)cc1)c1ccc(Br)o1
IC50 [4]: > 99 µM (inactive) | IC50 [7]: > 99 µM (inactive) | IC50 (Caspase-3): > 99 µM (inactive) | IC50 [9]: > 99 µM (inactive)

NC(=O)CC(NC(=O)c1ccccc1)c1ccc(N2CCCCCCC2)c([N+](=O)[O-])c1 (configuration not stated)
IC50 [11]: 6.21 µM (active) | IC50 [12]: 6.41 µM (active)
